These results are taken from PubChem BioAssay (NCI).

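Results reflect a 48-hour exposure of cells in 96-well plates to compound at five concentrations. The concentration for 50% growth inhibition is given as GI50. TGI marks complete inhibition of growth.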 Bounds are passed on as bounds.

Assay in all cases: NCI-60 cell line screen, 48 h
The subject of assay [1] is T-47D breast.
The test system of assay [2] is HS 578T breast.
The test system of assay [3] is MDA-MB-435.
For assay [4], the system named is MCF7 breast.
Assay [5] has as its system MDA-MB-231 breast.
Assay [6] relates to MDA-N.

For the compound `COc1ccc(/C=C/C(=O)c2ccc(Nc3nc(Nc4ccc(F)cc4)nc(Nc4ccc(F)cc4)n3)cc2)cc1`, the GI50 in assay [1] is 5.42 µM; in assay [2], 14.4 µM; in assay [3], 5.8 µM; in assay [4], 5.59 µM; in assay [5], 35.3 µM. The TGI is 52.5 µM in assay [1]; 59.6 µM in assay [2]; 31.6 µM in assay [3]; 34.3 µM in assay [4]; more than 100 µM in assay [5].
`Cc1cc2nc(-c3ccc(O)c(O)c3)n(Cc3ccc(O)c(O)c3)c2cc1C`: the GI50 in assay [1] was 31.8 µM; in assay [2] it was 41.3 µM; in assay [3] it was 16 µM; in assay [4], 24.4 µM; in assay [5], 24.1 µM. The TGI is more than 100 µM in assay [1]; more than 100 µM in assay [2]; more than 100 µM in assay [3]; 80.7 µM in assay [4]; 77.3 µM in assay [5].
In the case of `CN1CCN(c2nc3cc(F)ccc3n3cccc23)CC1`, the TGI was more than 100 µM in assay [6]; more than 100 µM in assay [1]; 97.9 µM in assay [2]; 64.6 µM in assay [3]; more than 100 µM in assay [4]; more than 100 µM in assay [5].
For `CCSc1nc(N)c2cnn(CC)c2n1`, the GI50 is 17.3 µM in assay [1]; 4.19 µM in assay [2]; 7.64 µM in assay [3]; 16.6 µM in assay [4]; 2.08 µM in assay [5]. Also, the TGI in assay [1] was more than 100 µM; in assay [2], 26 µM; in assay [3], 37.8 µM; in assay [4], 79 µM; in assay [5], 7.29 µM.
For `CC1=C(SCCC(=O)OC(C[Se]C2=C(C)C(=O)c3ccccc3C2=O)C(=O)NC(C)(C)C)C(=O)c2ccccc2C1=O` (centres undefined), the GI50 in assay [1] is 0.904 µM; in assay [2], 1.07 µM; in assay [3] it was 1.77 µM; in assay [4] it was 1.62 µM; in assay [5] it was 1.49 µM. Further, the TGI in assay [1] was 2.95 µM; in assay [2], 3.31 µM; in assay [3], 3.77 µM; in assay [4], 3.65 µM; in assay [5], 2.94 µM.
Turning to `CN(C)Cc1cc(C(C)(C)C)cc(CN(C)C)c1O`, the TGI in assay [6], in assay [1], in assay [2], in assay [3], in assay [4] and in assay [5] was more than 100 µM in each case.
As for `Cc1nc2sc(C(=O)Nc3ccccc3)c(N)c2cc1C(=O)c1ccccc1`, the GI50 in assay [1] was 2.94 µM; in assay [2], 2.47 µM; in assay [4] it was 1.73 µM; in assay [5] it was 3.04 µM. Besides, the TGI in assay [1], in assay [2], in assay [4] and in assay [5] was more than 50 µM in each case.
Turning to `CCCC(=O)OC(OC(=O)CCC)c1ccc([N+](=O)[O-])o1`, the TGI in assay [6] was 46.3 µM; in assay [1], 61.5 µM; in assay [2] it was more than 100 µM; in assay [3] it was 47.4 µM; in assay [4], 35.4 µM; in assay [5], 68 µM.
In the case of `CCOc1ccccc1N=Cc1c2ccccc2cc2ccccc12`, the TGI in assay [6] was 53.3 µM; in assay [1], 64.1 µM; in assay [2], more than 53.9 µM; in assay [3] it was 56 µM; in assay [4] it was more than 79.8 µM; in assay [5], 67.4 µM.
Consider `O=C1C(OC(=O)c2ccccc2)=C(c2ccc(O)cc2)C(=O)C(OC(=O)c2ccccc2)=C1c1ccc(O)cc1`, for which the TGI in assay [6], in assay [1], in assay [2], in assay [3], in assay [4] and in assay [5] was more than 100 µM throughout.
Regarding `COc1ccc(F)cc1-c1ccnc2[nH]c(C3=CCN(C4CCC(CC(=O)O)CC4)CC3)cc12` (centres undefined), the GI50 is 0.187 µM in assay [1]; 0.177 µM in assay [2]; 0.221 µM in assay [3]; 0.0625 µM in assay [4]; 0.205 µM in assay [5]. The TGI was more than 100 µM in assay [1], 0.965 µM in assay [2], 1.05 µM in assay [3] and 26.9 µM in assay [4].
With `N=C1C=C(N)C(=O)c2ccccc21`, the GI50 in assay [1] was 0.261 µM; in assay [2], 0.353 µM; in assay [3], 0.163 µM; in assay [4] it was 0.188 µM; in assay [5] it was 0.18 µM. Besides, the TGI in assay [1] was 0.671 µM; in assay [3], 0.31 µM; in assay [4], 0.391 µM; in assay [5] it was 0.554 µM.
As for `CCOC(=O)N(O)c1ccc(/C=C/c2ccccc2)cc1`, the GI50 in assay [1] is 0.452 µM; in assay [2] it was 29.4 µM; in assay [3], 11 µM; in assay [4], 0.341 µM; in assay [5] it was 9.39 µM. Further, the TGI in assay [1] was 8.81 µM; in assay [2] it was more than 100 µM; in assay [3] it was 48.6 µM; in assay [4] it was 14.6 µM; in assay [5], 39.9 µM.
As for `CN(C)CCOc1ccc2c(c1)C(=O)/C(=C\c1ncc([N+](=O)[O-])n1C)C2`, the GI50 in assay [1] was 1.76 µM; in assay [2] it was 1.87 µM; in assay [3], 0.209 µM; in assay [4], 0.216 µM; in assay [5] it was 0.418 µM. Also, the TGI was 11.4 µM in assay [1]; 5.37 µM in assay [2]; 0.643 µM in assay [3]; 2.5 µM in assay [4]; 2.33 µM in assay [5].
As to `N#Cc1cc2c(cc1Cl)SC(=Nc1ccccc1)N(S(=O)(=O)c1ccc(Br)s1)S2(=O)=O`, the GI50 is 24.3 µM in assay [1]; 24 µM in assay [2]; 16.1 µM in assay [3]; 13.6 µM in assay [4]; 22.8 µM in assay [5]. Also, the TGI in assay [1] worked out at 75 µM; in assay [2] it was 53.9 µM; in assay [3] it was 33.9 µM; in assay [4], 39.5 µM; in assay [5], 42.1 µM.
`COC(=N)CCCl`: the TGI in assay [6] and in assay [4] was more than 100 µM throughout.
`COc1ccc(C2C3=C(COC3=O)N(CCO)c3cc4c(cc32)CCC4)cc1` (centres undefined): the GI50 was 3.87 µM in assay [1]; 4.11 µM in assay [2]; 1.13 µM in assay [3]; 1.86 µM in assay [4]; 10.9 µM in assay [5]. Also, the TGI is more than 50 µM in assay [1]; 42 µM in assay [2]; 5.09 µM in assay [3]; more than 50 µM in assay [4]; more than 50 µM in assay [5].
Consider `Cc1c2ccccc2c(C)n2c1nc1cc(Cl)c(Cl)cc12`, for which the GI50 in assay [1] is 3.95 µM; in assay [2] it was more than 100 µM; in assay [3], more than 100 µM; in assay [4], 1.09 µM; in assay [5], 72.5 µM. Moreover, the TGI in assay [1], in assay [2], in assay [3], in assay [4] and in assay [5] was more than 100 µM throughout.
Regarding `C[C@@H](C[C@H](CCO)c1ccccc1)c1ccc2ccccc2c1`, the GI50 in assay [1] is 1.44 µM; in assay [2], 1.69 µM; in assay [3], 1.56 µM; in assay [4] it was 1.97 µM; in assay [5], 1.6 µM. Besides, the TGI in assay [1] was found to be 3.11 µM; in assay [2] it was 3.84 µM; in assay [3], 2.95 µM; in assay [4], 4.04 µM; in assay [5] it was 3.19 µM.
For the compound `CSc1nc2ccc(C)cc2cc1/C=C1/C=C(c2ccccc2)NC1=O`, the GI50 in assay [1] is 1.66 µM; in assay [2], 1.92 µM; in assay [3], 0.718 µM; in assay [4], 12.5 µM; in assay [5], 4.42 µM. The TGI in assay [1] is 24.5 µM; in assay [2], 7.46 µM; in assay [3], 21 µM; in assay [4], more than 100 µM; in assay [5], 36.6 µM.
In the case of `COC(=O)c1cc(C)[nH]c2c(C)cc3nc4ccccc4c3c12`, the GI50 in assay [1] was 3.2 µM; in assay [2], 15 µM; in assay [3], 9.01 µM; in assay [4], 8.01 µM; in assay [5], 2.44 µM. Moreover, the TGI in assay [1] was 12.9 µM; in assay [2] it was more than 100 µM; in assay [3], 22.2 µM; in assay [4], 22.8 µM; in assay [5], 10.5 µM.
With `c1ccc(-c2cc3n4c(-c5ccccc5)nn(-c5ccccc5)c4cnc-3n2)cc1`, the GI50 in assay [2] was 9.62 µM; in assay [3] it was more than 50 µM; in assay [4], 4.26 µM; in assay [5], 16.4 µM. Also, the TGI in assay [2], in assay [3], in assay [4] and in assay [5] was more than 50 µM each time.
Turning to `CC(=O)OC1=C(CC(C)(C)C)C(=O)c2ccccc2C1=O`, the TGI in assay [1] was more than 100 µM; in assay [2], 50.5 µM; in assay [3], 60.8 µM; in assay [4], more than 100 µM; in assay [5], more than 100 µM.
As to `CC(=O)/C(=C/N1CCN(C(=O)c2ccco2)C1=S)C(=O)c1ccccc1`, the GI50 in assay [1] is 4.29 µM; in assay [3] it was 10.7 µM; in assay [4], 1.25 µM; in assay [5], 9.46 µM. Also, the TGI in assay [1] was more than 50 µM; in assay [3], 43.9 µM; in assay [4] it was 4.2 µM; in assay [5], 19.8 µM.
On to `COc1ccc2c(c1)C=CC1C2CC[C@]2(C)C(NC(=O)/C=C/c3ccc(O)c(O)c3)CCC12` (some centres undefined), for which the GI50 in assay [1] is 12.2 µM; in assay [2] it was 27.2 µM; in assay [3], 14.7 µM; in assay [4], 6.28 µM; in assay [5], 12.1 µM. For the same compound, the TGI in assay [1] was 29 µM; in assay [2] it was more than 100 µM; in assay [3], 36.6 µM; in assay [4] it was 20.8 µM; in assay [5], 25.9 µM.
Turning to `COc1cc2c(=O)n(CC3CCCCC3)c3c4cc[nH]c4ncc3c2cc1OC`, the GI50 in assay [1] is 3.66 µM; in assay [2] it was 0.719 µM; in assay [3], 4.15 µM; in assay [4], 0.64 µM; in assay [5] it was 1.13 µM. Also, the TGI was more than 50 µM in assay [1]; 4.09 µM in assay [2]; more than 50 µM in assay [3]; more than 50 µM in assay [4]; 7.59 µM in assay [5].
As to `CNC(=O)c1cc(-c2ccc(F)cc2)cc(-c2ccc(S(=O)(=O)N3CCCC3)cc2)c1N`, the GI50 is 10.5 µM in assay [1]; more than 11.1 µM in assay [2]; more than 25 µM in assay [3]; 8.79 µM in assay [4]; more than 20.8 µM in assay [5]. For the same compound, the TGI in assay [1], in assay [2], in assay [3], in assay [4] and in assay [5] was more than 25 µM throughout.
In the case of `Cn1cc(-c2csc(-c3cn(C(=O)OC(C)(C)C)c4ccccc34)n2)c2cccnc21`, the GI50 in assay [1] was 3.71 µM; in assay [2], 3.93 µM; in assay [3], 1.68 µM; in assay [4], 2.85 µM; in assay [5] it was 5.3 µM. The TGI was 15.6 µM in assay [1]; 25.7 µM in assay [2]; 22.2 µM in assay [3]; 16.3 µM in assay [4]; 20 µM in assay [5].
Take `CS(=O)(=O)CCNCc1ccoc1-c1ccc2ncnc(Nc3ccc(OCc4ccccc4)cc3)c2c1`: the GI50 in assay [1] was 7.86 µM; in assay [2] it was 2.28 µM; in assay [3] it was more than 25 µM; in assay [4], 8.54 µM; in assay [5] it was more than 25 µM. Also, the TGI in assay [1], in assay [2], in assay [3], in assay [4] and in assay [5] was more than 25 µM in each case.
As to `CC[C@@H](C(=O)[C@@H](C)[C@@H](O)[C@H](C)[C@@H]1O[C@@H]([C@@H](CC)C(=O)O)CC[C@@H]1C)[C@H]1O[C@]2(C=C[C@@H](O)[C@]3(CC[C@@](C)([C@H]4CC[C@](O)(CC)[C@H](C)O4)O3)O2)[C@H](C)C[C@@H]1C`, the GI50 in assay [1] is 0.383 µM; in assay [2] it was 0.914 µM; in assay [3], 1.08 µM; in assay [4], 0.315 µM; in assay [5], 0.732 µM. In addition, the TGI in assay [1] is 16.7 µM; in assay [2] it was 36.1 µM; in assay [3], 2.72 µM; in assay [4] it was 13.1 µM; in assay [5], 7.68 µM.
